{
  "source": "patent US7608626B2",
  "about": "“Substituted indolizines and derivatives as CNS agents” (Wyeth, priority 2004, dated 2009)",
  "key": {"[1]": {"target": "T1, human 5-hydroxytryptamine-2C (h-5-HT2C) receptor (Homo sapiens, UniProt P28335)", "T1 construct": "expressed in transfected cells; host or cells: Chinese Hamster Ovary (CHO) cells; membrane preparation", "T1 sequence (P28335 33-458)": "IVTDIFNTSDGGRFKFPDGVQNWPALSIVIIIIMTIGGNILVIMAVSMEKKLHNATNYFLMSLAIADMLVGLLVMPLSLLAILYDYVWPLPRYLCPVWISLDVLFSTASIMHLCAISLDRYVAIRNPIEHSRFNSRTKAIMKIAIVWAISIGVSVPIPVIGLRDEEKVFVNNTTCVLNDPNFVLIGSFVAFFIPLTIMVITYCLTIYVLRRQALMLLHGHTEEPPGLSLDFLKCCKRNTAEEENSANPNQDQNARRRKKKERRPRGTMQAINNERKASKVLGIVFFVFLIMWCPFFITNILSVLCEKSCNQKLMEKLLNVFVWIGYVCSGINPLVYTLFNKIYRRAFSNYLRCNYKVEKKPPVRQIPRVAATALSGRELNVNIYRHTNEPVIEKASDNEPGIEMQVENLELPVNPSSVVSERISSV", "test": "[125I]DOI binding to membranes of CHO cells expressing h-5-HT2C receptor"}, "human 5-HT2C receptor": {"target": "T2, human 5-HT2C receptor (Homo sapiens, UniProt P28335)", "T2 construct": "expressed in transfected cells", "T2 sequence (P28335 33-458)": "T1 sequence (P28335 33-458)", "test": "5-HT2C receptor-stimulated calcium mobilization (FLIPR) in CHO cells", "assay_type": "cell-based", "conditions": "for Emax: CHO, read-out: 5-HT2C Function Emax (%); for EC50: calcium mobilization, CHO cells, read-out: 5-HT2C Function EC50"}},
  "note": "Where a name gives a salt, the structure may show the parent alone. Read-outs that look alike come from different tables or passages of the source.",
  "data": [
    {"smiles": "CCCNCCc1c(CC)c(CCC)n2ccccc12", "note": "[Example 8]", "values": [
      {"measurement": "Ki", "setting": "[1]; read-out: 5-HT2C Affinity Ki", "result": 208, "unit": "nM"}
    ]},
    {"smiles": "CCCc1c(C)c(CC(N)CC)c2ccccn12", "note": "(stereo not drawn) [Example 11, 1-(2-methyl-3-propylindolizin-1-yl)butan-2-amine]", "values": [
      {"measurement": "Ki", "setting": "[1]; read-out: 5-HT2C Affinity Ki", "result": 457, "unit": "nM"}
    ]},
    {"smiles": "CCc1c(-c2ccccc2)c(CCN)c2ccccn12", "note": "[Example 2, 2-(3-ethyl-2-phenylindolizin-1-yl)ethylamine]", "values": [
      {"measurement": "Ki", "setting": "[1]; read-out: 5-HT2C Affinity Ki", "result": 117, "unit": "nM"}
    ]},
    {"smiles": "CCc1c(-c2ccccc2)c(CCN)c2ccccn12", "note": "(as salt: fumaric acid salt) [Example 2, 2-(3-ethyl-2-phenylindolizin-1-yl)ethylamine]", "values": [
      {"measurement": "melting point", "result": "173 to 176", "unit": "°C"}
    ]},
    {"smiles": "CCNCCc1c(CC)c(CC)n2ccccc12", "note": "[Example 6, N-[2-(2,3-diethylindolizin-1-yl)ethyl]-N-ethylamine]", "values": [
      {"measurement": "Ki", "setting": "[1]; read-out: 5-HT2C Affinity Ki", "result": 228, "unit": "nM"}
    ]},
    {"smiles": "CCCc1c(CC)c(CC(C)N)c2ccccn12", "note": "(stereo not drawn) [Example 9, 2-(2-ethyl-3-propylindolizin-1-yl)-1-methylethylamine]", "values": [
      {"measurement": "Ki", "setting": "[1]; read-out: 5-HT2C Affinity Ki", "result": 124, "unit": "nM"}
    ]},
    {"smiles": "CCc1cn2ccccc2c1CCN", "note": "(as salt: fumaric acid salt) [Example 4, 2-(2-ethylindolizin-1-yl)ethylamine]", "values": [
      {"measurement": "melting point", "result": "170 to 175 °C (dec.)"}
    ]},
    {"smiles": "CCCc1c(C)c(CC(C)N)c2ccccn12", "note": "(stereo not drawn) (as salt: fumaric acid salt) [Example 10, 1-(2-methyl-3-propylindolizin-1-yl)propan-2-amine]", "values": [
      {"measurement": "melting point", "result": "147 to 150", "unit": "°C"}
    ]},
    {"smiles": "CCCc1c(CC)c(CCN)c2ccccn12", "note": "(as salt: fumaric acid salt) [Example 7, 2-(2-ethyl-3-propylindolizin-1-yl)ethylamine]", "values": [
      {"measurement": "melting point", "result": "154 to 158", "unit": "°C"}
    ]},
    {"smiles": "CCCc1c(CC)c(CCN)c2ccccn12", "note": "[Example 7, 2-(2-ethyl-3-propylindolizin-1-yl)ethylamine]", "values": [
      {"measurement": "Emax", "setting": "human 5-HT2C receptor", "result": 100, "unit": "%"},
      {"measurement": "EC50", "setting": "human 5-HT2C receptor", "result": 19, "unit": "nM"},
      {"measurement": "Ki", "setting": "[1]", "result": 21, "unit": "nM"}
    ]},
    {"smiles": "CSc1ccc2c(c1)C(N1CCN(C)CC1)Cc1ccccc1S2", "note": "(stereo not drawn) [Methiothepin, reference compound]", "values": [
      {"measurement": "Ki", "setting": "[1]; reference compounds, [125I]DOI radioligand, CHO cell membranes, read-out: Ki (95% confidence interval)", "result": 4.6, "unit": "nM"}
    ]},
    {"smiles": "CCCc1c(CC)c(CC(C)N)c2ccccn12", "note": "(stereo not drawn) (as salt: fumaric acid salt) [Example 9, 2-(2-ethyl-3-propylindolizin-1-yl)-1-methylethylamine]", "values": [
      {"measurement": "melting point", "result": "184 to 186", "unit": "°C"}
    ]},
    {"smiles": "CCCc1c(C)c(CC(C)N)c2ccccn12", "note": "(stereo not drawn) [Example 10, 1-(2-methyl-3-propylindolizin-1-yl)propan-2-amine]", "values": [
      {"measurement": "Emax", "setting": "human 5-HT2C receptor", "result": 90, "unit": "%"},
      {"measurement": "EC50", "setting": "human 5-HT2C receptor", "result": 46, "unit": "nM"},
      {"measurement": "Ki", "setting": "[1]", "result": 17, "unit": "nM"}
    ]},
    {"smiles": "CCc1cn2ccccc2c1CCN", "note": "[Example 4, 2-(2-ethylindolizin-1-yl)ethylamine]", "values": [
      {"measurement": "Ki", "setting": "[1]", "result": 121, "unit": "nM"}
    ]},
    {"smiles": "CCCc1c(-c2ccccc2)c(CCN)c2ccccn12", "note": "(as salt: fumaric acid salt) [Example 3, 2-(2-phenyl-3-propylindolizin-1-yl)ethylamine]", "values": [
      {"measurement": "melting point", "result": "169 to 172", "unit": "°C"}
    ]},
    {"smiles": "CCNCCc1c(CC)c(CC)n2ccccc12", "note": "(as salt: fumaric acid salt) [Example 6, N-[2-(2,3-diethylindolizin-1-yl)ethyl]-N-ethylamine]", "values": [
      {"measurement": "melting point", "result": "154 to 158", "unit": "°C"}
    ]},
    {"smiles": "CCc1c(CCN)c2ccccn2c1CC", "note": "(as salt: fumaric acid salt) [Example 5, 2-(2,3-diethylindolizin-1-yl)ethylamine]", "values": [
      {"measurement": "melting point", "result": "166 to 171", "unit": "°C"}
    ]},
    {"smiles": "CCCc1c(-c2ccccc2)c(CCN)c2ccccn12", "note": "[Example 3, 2-(2-phenyl-3-propylindolizin-1-yl)ethylamine]", "values": [
      {"measurement": "Ki", "setting": "[1]; read-out: 5-HT2C Affinity Ki", "result": 54, "unit": "nM"}
    ]},
    {"smiles": "NCCc1c2c(n3ccccc13)CCCC2", "note": "[Example 12, 2-(1,2,3,4-tetrahydropyrido[1,2-a]indol-10-yl)ethylamine]", "values": [
      {"measurement": "Ki", "setting": "[1]", "result": 98, "unit": "nM"}
    ]},
    {"smiles": "CCc1c(CCN)c2ccccn2c1CC", "note": "[Example 5, 2-(2,3-diethylindolizin-1-yl)ethylamine]", "values": [
      {"measurement": "Emax", "setting": "human 5-HT2C receptor", "result": 80, "unit": "%"},
      {"measurement": "EC50", "setting": "human 5-HT2C receptor", "result": 11, "unit": "nM"},
      {"measurement": "Ki", "setting": "[1]", "result": 35, "unit": "nM"}
    ]},
    {"smiles": "NCCc1c(-c2ccccc2)cn2ccccc12", "note": "[Example 1, 2-(2-phenylindolizin-1-yl)ethylamine]", "values": [
      {"measurement": "Ki", "setting": "[1]; read-out: 5-HT2C Affinity Ki", "result": 272, "unit": "nM"}
    ]}
  ]
}
